According to patent publication US7304093B2, “Ketone compounds and compositions for cholesterol management and related uses” (Esperion Therapeutics, Inc., priority 2000, dated 2007):
Where two headings read alike, the source gives them in different places. Marks after values point to notes of the source that are not given here.

Tested on: female obese Zucker rats
Experiment: Serum lipid and glycemic control variables in chow-fed obese female Zucker rats, daily oral gavage for two weeks
Format: in vivo, rat
Conditions: for change in vivo at 100 mg/kg: Rattus norvegicus, Table 9; for Glucose / HDL-C / NEFA / Non-HDL-C / TG / Insulin: serum, mean ± SEM; for Insulin: Table 12
How it was run: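 Female obese Zucker fa rats, 10–12 wk, 400–500 g, chow-fed, dosed daily by oral gavage for 14 days in CMC/Tween 20 or ethanol/PEG-200 vehicle. After a 6-h fast, serum was sampled pre-dose, day 7 and day 14. Triglycerides, total cholesterol, NEFA and β-hydroxybutyrate were measured, plus lipoprotein cholesterol by gel-filtration profiling.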

CC(C)(CCCCCC(=O)CCCCCC(C)(C)C(=O)O)C(=O)O [Compound 210g, 2,2,14,14-Tetramethyl-8-oxopentadecanedioic acid]
NEFA, percent increase (+) or decrease (−) of the pretreatment control value (3 mg/kg daily oral, 1 wk): (−15) percent
Glucose, percent increase (+) or decrease (−) of the pretreatment control value (3 mg/kg daily oral, 2 wk): (+108) percent
NEFA, percent increase (+) or decrease (−) of the pretreatment control value (3 mg/kg daily oral, 2 wk): (−23) percent
HDL-C, percent increase (+) or decrease (−) of the pretreatment control value (10 mg/kg daily oral, 1 wk): (+158) percent
NEFA, percent increase (+) or decrease (−) of the pretreatment control value (10 mg/kg daily oral, 1 wk): (−17) percent
TG, percent increase (+) or decrease (−) of the pretreatment control value (10 mg/kg daily oral, 1 wk): (−36) percent
HDL-C, percent increase (+) or decrease (−) of the pretreatment control value (10 mg/kg daily oral, 2 wk): (+160) percent
NEFA, percent increase (+) or decrease (−) of the pretreatment control value (10 mg/kg daily oral, 2 wk): (−21) percent
Non-HDL-C, percent increase (+) or decrease (−) of the pretreatment control value (10 mg/kg daily oral, 2 wk): (+155) percent
HDL-C, percent increase (+) or decrease (−) of the pretreatment control value (30 mg/kg daily oral, 1 wk): (+256) percent
Insulin, percent increase (+) or decrease (−) of the pretreatment control value (30 mg/kg daily oral, 1 wk): (−35) percent
NEFA, percent increase (+) or decrease (−) of the pretreatment control value (30 mg/kg daily oral, 1 wk): (−32) percent
Non-HDL-C, percent increase (+) or decrease (−) of the pretreatment control value (30 mg/kg daily oral, 1 wk): (−48) percent
TG, percent increase (+) or decrease (−) of the pretreatment control value (30 mg/kg daily oral, 1 wk): (−78) percent
HDL-C, percent increase (+) or decrease (−) of the pretreatment control value (30 mg/kg daily oral, 2 wk): (+335) percent
Insulin, percent increase (+) or decrease (−) of the pretreatment control value (30 mg/kg daily oral, 2 wk): (−21) percent
NEFA, percent increase (+) or decrease (−) of the pretreatment control value (30 mg/kg daily oral, 2 wk): (−49) percent
TG, percent increase (+) or decrease (−) of the pretreatment control value (30 mg/kg daily oral, 2 wk): (−52) percent
Glucose, percent increase (+) or decrease (−) of the pretreatment control value (100 mg/kg daily oral, 1 wk): (−21) percent
HDL-C, percent increase (+) or decrease (−) of the pretreatment control value (100 mg/kg daily oral, 1 wk): (+151) percent
Insulin, percent increase (+) or decrease (−) of the pretreatment control value (100 mg/kg daily oral, 1 wk): (−46) percent
NEFA, percent increase (+) or decrease (−) of the pretreatment control value (100 mg/kg daily oral, 1 wk): (−30) percent
Non-HDL-C, percent increase (+) or decrease (−) of the pretreatment control value (100 mg/kg daily oral, 1 wk): (−92) percent
TG, percent increase (+) or decrease (−) of the pretreatment control value (100 mg/kg daily oral, 1 wk): (−93) percent
Glucose, percent increase (+) or decrease (−) of the pretreatment control value (100 mg/kg daily oral, 2 wk): (−10) percent
HDL-C, percent increase (+) or decrease (−) of the pretreatment control value (100 mg/kg daily oral, 2 wk): (+213) percent
Insulin, percent increase (+) or decrease (−) of the pretreatment control value (100 mg/kg daily oral, 2 wk): (−50) percent
NEFA, percent increase (+) or decrease (−) of the pretreatment control value (100 mg/kg daily oral, 2 wk): (−52) percent
Non-HDL-C, percent increase (+) or decrease (−) of the pretreatment control value (100 mg/kg daily oral, 2 wk): (−88) percent
TG, percent increase (+) or decrease (−) of the pretreatment control value (100 mg/kg daily oral, 2 wk): (−92) percent
change in vivo at 100 mg/kg (168 h, 100 mg/kg daily oral, 1 wk, read-out: HDL-Cholesterol, Percent Change from Pre-Treatment): 72%
change in vivo at 100 mg/kg (168 h, 100 mg/kg daily oral, 1 wk, read-out: NonHDL-Cholesterol, Percent Change from Pre-Treatment): -98%
change in vivo at 100 mg/kg (168 h, 100 mg/kg daily oral, 1 wk, read-out: TG, Percent Change from Pre-Treatment): -93%
change in vivo at 100 mg/kg (336 h, 100 mg/kg daily oral, 2 wk, read-out: HDL-Cholesterol, Percent Change from Pre-Treatment): 168%
change in vivo at 100 mg/kg (336 h, 100 mg/kg daily oral, 2 wk, read-out: NonHDL-Cholesterol, Percent Change from Pre-Treatment): -99%
change in vivo at 100 mg/kg (336 h, 100 mg/kg daily oral, 2 wk, read-out: TG, Percent Change from Pre-Treatment): -94%
Glucose (3 mg/kg daily oral, 1 wk): 117 ± 4 mg/dL
HDL-C (3 mg/kg daily oral, 1 wk): 75 ± 6 mg/dL
NEFA (3 mg/kg daily oral, 1 wk): 1.1 ± 0.07
Non-HDL-C (3 mg/kg daily oral, 1 wk): 23 ± 2 mg/dL
TG (3 mg/kg daily oral, 1 wk): 995 ± 50^a mg/dl
Insulin (3 mg/kg daily oral, 1 wk): 10.0 ± 1.0 ng/mL
Glucose (3 mg/kg daily oral, 2 wk): 124 ± 4^a mg/dl
HDL-C (3 mg/kg daily oral, 2 wk): 77 ± 8 mg/dL
NEFA (3 mg/kg daily oral, 2 wk): 1.0 ± 0.10
Non-HDL-C (3 mg/kg daily oral, 2 wk): 25 ± 2 mg/dL
TG (3 mg/kg daily oral, 2 wk): 833 ± 57 mg/dL
Insulin (3 mg/kg daily oral, 2 wk): 7.3 ± 0.5 ng/mL
Glucose (10 mg/kg daily oral, 1 wk): 122 ± 3 mg/dL
HDL-C (10 mg/kg daily oral, 1 wk): 136 ± 11^a mg/dl
NEFA (10 mg/kg daily oral, 1 wk): 1.0 ± 0.07
Non-HDL-C (10 mg/kg daily oral, 1 wk): 22 ± 2 mg/dL
TG (10 mg/kg daily oral, 1 wk): 553 ± 35^a mg/dl
Insulin (10 mg/kg daily oral, 1 wk): 10.5 ± 1.1 ng/mL
Glucose (10 mg/kg daily oral, 2 wk): 125 ± 4 mg/dL
HDL-C (10 mg/kg daily oral, 2 wk): 138 ± 8^a mg/dl
NEFA (10 mg/kg daily oral, 2 wk): 0.95 ± 0.08
Non-HDL-C (10 mg/kg daily oral, 2 wk): 34 ± 3^a mg/dl
TG (10 mg/kg daily oral, 2 wk): 865 ± 69 mg/dL
Insulin (10 mg/kg daily oral, 2 wk): 9.1 ± 0.7 ng/mL
Glucose (30 mg/kg daily oral, 1 wk): 108 ± 4 mg/dL
HDL-C (30 mg/kg daily oral, 1 wk): 159 ± 12^a mg/dl
NEFA (30 mg/kg daily oral, 1 wk): 0.88 ± 0.06
Non-HDL-C (30 mg/kg daily oral, 1 wk): 14 ± 2^a mg/dl
TG (30 mg/kg daily oral, 1 wk): 213 ± 19^a mg/dl
Insulin (30 mg/kg daily oral, 1 wk): 6.4 ± 0.6^a ng/ml
Glucose (30 mg/kg daily oral, 2 wk): 130 ± 4 mg/dL
HDL-C (30 mg/kg daily oral, 2 wk): 208 ± 14^a mg/dl
NEFA (30 mg/kg daily oral, 2 wk): 0.66 ± 0.03
Non-HDL-C (30 mg/kg daily oral, 2 wk): 30 ± 2 mg/dL
TG (30 mg/kg daily oral, 2 wk): 475 ± 38^a mg/dl
Insulin (30 mg/kg daily oral, 2 wk): 7.7 ± 0.9^a ng/ml
Glucose (100 mg/kg daily oral, 1 wk): 92 ± 4^a mg/dl
HDL-C (100 mg/kg daily oral, 1 wk): 100 ± 8^a mg/dl
NEFA (100 mg/kg daily oral, 1 wk): 0.98 ± 0.08
Non-HDL-C (100 mg/kg daily oral, 1 wk): 2 ± 1^a mg/dl
TG (100 mg/kg daily oral, 1 wk): 69 ± 5^a mg/dl
Insulin (100 mg/kg daily oral, 1 wk): 6.4 ± 1.3^a ng/ml
Glucose (100 mg/kg daily oral, 2 wk): 105 ± 3^a mg/dl
HDL-C (100 mg/kg daily oral, 2 wk): 141 ± 12^a mg/dl
NEFA (100 mg/kg daily oral, 2 wk): 0.66 ± 0.08
Non-HDL-C (100 mg/kg daily oral, 2 wk): 3 ± 1^a mg/dl
TG (100 mg/kg daily oral, 2 wk): 78 ± 10^a mg/dl
Insulin (100 mg/kg daily oral, 2 wk): 6.0 ± 0.8^a ng/ml
